Common to all, as to test: CXCR6 receptor antagonists, dose response, cell-based, beta-arrestin, DiscoveRx, APJ panel, uHTS hits (AID 624129)
Test [1] has as its target Apelin receptor (Homo sapiens) (UniProt P35414). To be noted: CXCR6 beta-arrestin (DiscoveRx) antagonist cell assay, APJ.
Test [2] concerns the target Beta-galactosidase (Escherichia coli) (UniProt Q8VNN2). Conditions: CXCR6 beta-arrestin (DiscoveRx) antagonist cell assay, b-galactosidase.
The target of test [3] is C-C chemokine receptor type 6 (Homo sapiens) (UniProt P51684). Conditions: CXCR6 beta-arrestin (DiscoveRx) antagonist cell assay.
Test [4] concerns the target C-X-C chemokine receptor type 6 (Homo sapiens) (UniProt O00574). To be noted: CXCR6 beta-arrestin (DiscoveRx) antagonist cell assay.
Setting [5] is: dose range 1, mean IC50 across replicates.
The mark [6] stands for this setting: CCR6, dose range 1, mean IC50 across replicates.
The mark [7] stands for this setting: CXCR6, dose range 1, mean IC50 across replicates.

Molecules are shown by their SMILES. Activity calls are given as the source filed them. No rule for the calls is given here.

Chain of C-X-C chemokine receptor type 6 (Homo sapiens) (O00574 whole entry, looked up): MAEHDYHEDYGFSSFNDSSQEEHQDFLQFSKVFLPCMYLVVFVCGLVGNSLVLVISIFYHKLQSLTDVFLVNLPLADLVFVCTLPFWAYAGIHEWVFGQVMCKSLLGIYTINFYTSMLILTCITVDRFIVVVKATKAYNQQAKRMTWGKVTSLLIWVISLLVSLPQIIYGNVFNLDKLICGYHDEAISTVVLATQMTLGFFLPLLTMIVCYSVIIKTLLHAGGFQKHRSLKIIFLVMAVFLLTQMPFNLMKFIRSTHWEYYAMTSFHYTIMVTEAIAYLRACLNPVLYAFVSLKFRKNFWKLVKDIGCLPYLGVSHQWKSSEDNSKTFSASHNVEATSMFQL
Chain of Beta-galactosidase (Escherichia coli) (Q8VNN2 whole entry, looked up): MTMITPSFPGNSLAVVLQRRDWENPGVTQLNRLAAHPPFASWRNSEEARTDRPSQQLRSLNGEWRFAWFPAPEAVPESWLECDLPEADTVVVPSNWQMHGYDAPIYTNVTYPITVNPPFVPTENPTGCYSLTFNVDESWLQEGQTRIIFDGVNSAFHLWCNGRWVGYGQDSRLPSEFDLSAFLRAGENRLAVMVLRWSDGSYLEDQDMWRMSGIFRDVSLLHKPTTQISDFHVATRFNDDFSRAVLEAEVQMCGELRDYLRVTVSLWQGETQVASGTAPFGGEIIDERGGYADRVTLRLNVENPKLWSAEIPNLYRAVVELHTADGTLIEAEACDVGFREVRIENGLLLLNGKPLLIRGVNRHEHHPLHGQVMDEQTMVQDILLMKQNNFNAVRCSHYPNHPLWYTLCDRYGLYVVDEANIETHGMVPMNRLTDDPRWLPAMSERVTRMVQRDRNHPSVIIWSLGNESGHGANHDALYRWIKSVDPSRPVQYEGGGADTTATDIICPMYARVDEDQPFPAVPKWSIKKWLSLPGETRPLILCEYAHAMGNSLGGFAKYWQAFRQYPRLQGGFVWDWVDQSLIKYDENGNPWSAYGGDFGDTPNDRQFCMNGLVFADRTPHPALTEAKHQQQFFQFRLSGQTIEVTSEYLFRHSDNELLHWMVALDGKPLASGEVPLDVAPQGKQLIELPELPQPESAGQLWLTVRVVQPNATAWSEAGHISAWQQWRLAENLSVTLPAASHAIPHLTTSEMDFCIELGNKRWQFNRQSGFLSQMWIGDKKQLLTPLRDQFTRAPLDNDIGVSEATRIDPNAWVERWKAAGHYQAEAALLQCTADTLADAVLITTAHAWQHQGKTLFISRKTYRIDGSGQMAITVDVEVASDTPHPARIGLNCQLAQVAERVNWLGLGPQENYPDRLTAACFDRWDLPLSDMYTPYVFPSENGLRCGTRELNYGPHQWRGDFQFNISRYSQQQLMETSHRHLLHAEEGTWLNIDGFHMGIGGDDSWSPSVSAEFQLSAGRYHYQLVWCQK

Take `Cc1cccnc1Nc1nc(-c2ccccn2)cs1`: the IC50 is 1.2 µM in test [1] (dose range 1); 1.38 µM in test [1] (setting [5]); 1.82 µM in test [1] (run 2, dose range 1); 1.13 µM in test [1] (run 3, dose range 1); > 80 µM (inactive) in test [2] (dose range 1); greater than 80 µM in test [2] (setting [5]). Moreover, the IC50 was 0.955 µM in test [3] (CCR6, dose range 1); 1.22 µM in test [3] (setting [6]); 1.48 µM in test [3] (CCR6, run 2, dose range 1); 1.13 µM in test [4] (CXCR6, dose range 1); 0.904 µM in test [4] (setting [7]); 0.837 µM in test [4] (CXCR6, run 1, dose range 2). The IC50 in test [4] (CXCR6, run 2, dose range 1) came to 0.861 µM; in test [4] (CXCR6, run 2, dose range 2), 0.788 µM.
Turning to `Cc1c(Nc2cc(Cl)c3nonc3c2[N+](=O)[O-])c(=O)n(-c2ccccc2)n1C`, the IC50 in test [1] (dose range 1) is 4.55 µM; in test [1] (setting [5]), 4.26 µM; in test [1] (run 2, dose range 1), 4.09 µM; in test [1] (run 3, dose range 1), 4.16 µM; in test [2] (dose range 1), > 80 µM (inactive); in test [2] (setting [5]), greater than 80 µM. The IC50 in test [3] (CCR6, dose range 1) was 3.16 µM; in test [3] (setting [6]), 3.35 µM; in test [3] (CCR6, run 2, dose range 1), 3.55 µM; in test [4] (CXCR6, dose range 1), 3.95 µM; in test [4] (setting [7]), 3.92 µM; in test [4] (CXCR6, run 1, dose range 2) it was 3.59 µM. Also, the IC50 in test [4] (CXCR6, run 2, dose range 1) stood at 4.6 µM; in test [4] (CXCR6, run 2, dose range 2), 3.57 µM.
Consider `COc1cc(C(=O)NC2CC3CCCC(C2)N3CC(=O)Nc2ccccc2)cc(OC)c1OC` (stereo not given), for which the IC50 in test [1] (dose range 1) was > 80 µM (inactive); in test [1] (setting [5]), greater than 80 µM; in test [1] (run 2, dose range 1), greater than 80 µM; in test [1] (run 3, dose range 1), greater than 80 µM; in test [2] (dose range 1) it was > 80 µM (inactive); in test [2] (setting [5]) it was greater than 80 µM. Further, the IC50 is > 80 µM (inactive) in test [3] (CCR6, dose range 1); greater than 80 µM in test [3] (setting [6]); greater than 80 µM in test [3] (CCR6, run 2, dose range 1); 13.5 µM in test [4] (CXCR6, dose range 1); 10.7 µM in test [4] (setting [7]); 12.3 µM in test [4] (CXCR6, run 1, dose range 2). For the same compound, the IC50 in test [4] (CXCR6, run 2, dose range 1) was determined as 10.7 µM; in test [4] (CXCR6, run 2, dose range 2), 6.07 µM.
As for `COCc1cc(=O)[nH]c(Nc2nc3ccc(C)cc3o2)n1`, the IC50 was 4.2 µM in test [1] (dose range 1); 7.6 µM in test [1] (setting [5]); greater than 80 µM in test [1] (run 2, dose range 1); 11 µM in test [1] (run 3, dose range 1); > 80 µM (inactive) in test [2] (dose range 1); greater than 80 µM in test [2] (setting [5]). Also, the IC50 in test [3] (CCR6, dose range 1) was 3.97 µM; in test [3] (setting [6]), 4.52 µM; in test [3] (CCR6, run 2, dose range 1), 5.08 µM; in test [4] (setting [7]) it was 3.61 µM; in test [4] (CXCR6, run 1, dose range 2), 3.3 µM; in test [4] (CXCR6, run 2, dose range 1), greater than 80 µM. In test [4] (CXCR6, run 2, dose range 2), this compound had an IC50 of 3.93 µM.
For `O=C(Nc1ccccc1Cl)/C(Cl)=C(\Cl)S(=O)c1ccccc1` (stereo not given), the IC50 is 12.7 µM in test [1] (dose range 1); 11.7 µM in test [1] (setting [5]); 11.9 µM in test [1] (run 2, dose range 1); 10.5 µM in test [1] (run 3, dose range 1); > 80 µM (inactive) in test [2] (dose range 1); greater than 80 µM in test [2] (setting [5]). Also, the IC50 in test [3] (CCR6, dose range 1) is 8.58 µM; in test [3] (setting [6]) it was 8.32 µM; in test [3] (CCR6, run 2, dose range 1) it was 8.05 µM; in test [4] (CXCR6, dose range 1), 9.69 µM; in test [4] (setting [7]), 9.93 µM; in test [4] (CXCR6, run 1, dose range 2) it was 9.44 µM. Further, the IC50 in test [4] (CXCR6, run 2, dose range 1) amounted to 10.4 µM; in test [4] (CXCR6, run 2, dose range 2) it was 10.2 µM.
`Cc1ccc(S(=O)(=O)c2ccc([N+](=O)[O-])o2)cc1`: the IC50 was 9.88 µM in test [1] (dose range 1); 10.9 µM in test [1] (setting [5]); greater than 80 µM in test [1] (run 2, dose range 1); 11.9 µM in test [1] (run 3, dose range 1); > 80 µM (inactive) in test [2] (dose range 1); greater than 80 µM in test [2] (setting [5]). Also, the IC50 is 8.34 µM in test [3] (setting [6]); 8.34 µM in test [3] (CCR6, run 2, dose range 1); 11.8 µM in test [4] (setting [7]); greater than 80 µM in test [4] (CXCR6, run 2, dose range 1). Further, the IC50 result in test [4] (CXCR6, dose range 1) was “inactive”. The inhibition in test [4] (CXCR6, run 1, dose range 2, at 20 µM (top of the series)) came to 77.6%.
`CCC(C)c1ccc(O)c(NC(=S)NC(=O)c2cccnc2)c1` (stereo not given): the IC50 is 8.9 µM in test [1] (dose range 1); 11.3 µM in test [1] (setting [5]); 14.6 µM in test [1] (run 2, dose range 1); 10.5 µM in test [1] (run 3, dose range 1); 56 µM in test [2] (setting [5]); 7.67 µM in test [3] (CCR6, dose range 1). Also, the concentration for half-maximal inhibition (IC50) in test [3] (setting [6]) worked out at 12 µM; in test [3] (CCR6, run 2, dose range 1) it was 16.3 µM; in test [4] (setting [7]), 12.9 µM; in test [4] (CXCR6, run 1, dose range 2) it was 8.01 µM; in test [4] (CXCR6, run 2, dose range 1) it was 20.2 µM; in test [4] (CXCR6, run 2, dose range 2), 12.9 µM. In addition, the IC50 result in test [2] (dose range 1) is “inactive”; in test [4] (CXCR6, dose range 1), “inactive”.
